Test results reported in PubChem BioAssay (NCI).
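The compound was tested at five concentrations on cells cultured in 96-well plates, with a 48-hour exposure period. Abbreviation: GI50, concentration required for 50% inhibition of growth. TGI marks complete inhibition of growth.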

Legend:
Experiment in all cases: NCI-60 cell line screen, 48 h
[1] = test system: 786-0 renal
[2] = test system: A498 renal
[3] = test system: A549 NSCLC
[4] = test system: ACHN renal
[5] = test system: BT-549 breast
[6] = test system: CAKI-1 renal
[7] = test system: CCRF-CEM leukemia
[8] = test system: COLO 205 colon
[9] = test system: DU-145 prostate
[10] = test system: EKVX NSCLC
[11] = test system: HCC-2998 colon
[12] = test system: HCT-116 colon
[13] = test system: HCT-15 colon
[14] = test system: HL-60(TB) leukemia
[15] = test system: HOP-62 NSCLC
[16] = test system: HOP-92 NSCLC
[17] = test system: HS 578T breast
[18] = test system: HT29 colon
[19] = test system: IGROV1 ovarian
[20] = test system: KM12 colon
[21] = test system: LOX IMVI melanoma
[22] = test system: M14 melanoma
[23] = test system: MALME-3M melanoma
[24] = test system: MCF7 breast
[25] = test system: MDA-MB-231 breast
[26] = test system: MOLT-4 leukemia
[27] = test system: NCI-H226 lung
[28] = test system: NCI-H23 lung
[29] = test system: NCI-H460 lung
[30] = test system: NCI-H522 lung
[31] = test system: OVCAR-3 ovarian
[32] = test system: OVCAR-4 ovarian
[33] = test system: OVCAR-5 ovarian
[34] = test system: OVCAR-8 ovarian
[35] = test system: PC-3 prostate
[36] = test system: RPMI-8226 leukemia
[37] = test system: RXF 393 renal
[38] = test system: SF-268 CNS
[39] = test system: SF-539 CNS
[40] = test system: SK-MEL-2 melanoma
[41] = test system: SK-MEL-28 melanoma
[42] = test system: SK-MEL-5 melanoma
[43] = test system: SK-OV-3 ovarian
[44] = test system: SN12C renal
[45] = test system: SNB-19 CNS
[46] = test system: SNB-75 CNS
[47] = test system: SR leukemia
[48] = test system: SW-620 colon
[49] = test system: T-47D breast
[50] = test system: TK-10 renal
[51] = test system: U251 CNS
[52] = test system: UACC-257 melanoma
[53] = test system: UACC-62 melanoma
[54] = test system: UO-31 renal

O=C1Nc2ccccc2/C1=C\c1c(-c2ccccc2)nc2ccccn12
GI50 [1]: 5.98 µM | TGI [1]: 81.5 µM | GI50 [2]: 5.87 µM | TGI [2]: > 100 µM | GI50 [3]: 3.9 µM | TGI [3]: 60 µM | GI50 [4]: 4.45 µM | TGI [4]: > 100 µM | GI50 [5]: 3.97 µM | TGI [5]: 50.9 µM | GI50 [6]: 2.7 µM | TGI [6]: > 100 µM | GI50 [7]: 2.57 µM | TGI [7]: > 100 µM | GI50 [8]: 2.21 µM | TGI [8]: 5.58 µM | GI50 [9]: 4.46 µM | TGI [9]: > 100 µM | GI50 [10]: 3.1 µM | TGI [10]: > 100 µM | GI50 [11]: 4.56 µM | TGI [11]: 34.8 µM | GI50 [12]: 3.61 µM | TGI [12]: 47 µM | GI50 [13]: 3.6 µM | TGI [13]: > 100 µM | GI50 [14]: 2.59 µM | TGI [14]: 6.47 µM | GI50 [15]: 2.7 µM | TGI [15]: 15.5 µM | GI50 [16]: 3.98 µM | TGI [16]: 50.4 µM | GI50 [17]: 9.31 µM | TGI [17]: > 100 µM | GI50 [18]: 3.05 µM | TGI [18]: 13.9 µM | GI50 [19]: 2.59 µM | TGI [19]: 20.2 µM | GI50 [20]: 2.55 µM | TGI [20]: > 100 µM | GI50 [21]: 4.34 µM | TGI [21]: > 100 µM | GI50 [22]: 2.48 µM | TGI [22]: 7.8 µM | GI50 [23]: 3.88 µM | TGI [23]: > 100 µM | GI50 [24]: 3.52 µM | TGI [24]: > 100 µM | GI50 [25]: 7.29 µM | TGI [25]: > 100 µM | GI50 [26]: 4.2 µM | TGI [26]: > 100 µM | GI50 [27]: 4.5 µM | TGI [27]: 57.8 µM | GI50 [28]: 3.77 µM | TGI [28]: > 100 µM | GI50 [29]: 3.24 µM | TGI [29]: 12.9 µM | GI50 [30]: 1.83 µM | TGI [30]: 7.65 µM | GI50 [31]: 4.26 µM | TGI [31]: > 100 µM | GI50 [32]: 6.21 µM | TGI [32]: > 100 µM | GI50 [33]: 4.39 µM | TGI [33]: > 100 µM | GI50 [34]: 4.9 µM | TGI [34]: > 100 µM | GI50 [35]: 3.14 µM | TGI [35]: > 100 µM | GI50 [36]: 2.67 µM | TGI [36]: 8.56 µM | GI50 [37]: 2.75 µM | TGI [37]: 12.1 µM | GI50 [38]: 5.23 µM | TGI [38]: > 100 µM | GI50 [39]: 3.96 µM | TGI [39]: 18.9 µM | GI50 [40]: 2.35 µM | TGI [40]: 6.97 µM | GI50 [41]: 5.53 µM | TGI [41]: > 100 µM | GI50 [42]: 2.83 µM | TGI [42]: > 100 µM | GI50 [43]: 1.95 µM | TGI [43]: 4.69 µM | GI50 [44]: 4.91 µM | TGI [44]: > 100 µM | GI50 [45]: 4.93 µM | TGI [45]: > 100 µM | GI50 [46]: 1.85 µM | TGI [46]: 6.1 µM | GI50 [47]: 0.498 µM | TGI [47]: > 100 µM | GI50 [48]: 3.02 µM | TGI [48]: > 100 µM | GI50 [49]: 4.4 µM | TGI [49]: > 100 µM | GI50 [50]: 5.05 µM | TGI [50]: 37.1 µM | GI50 [51]: 3.97 µM | TGI [51]: 21 µM | GI50 [52]: 8.96 µM | TGI [52]: > 100 µM | GI50 [53]: 3.88 µM | TGI [53]: > 100 µM | GI50 [54]: 1.95 µM | TGI [54]: > 100 µM
